Data taken from ChEMBL document CHEMBL1148144, “Horiolide, a novel norditerpenoid from Indian ocean soft coral of the genus Sinularia” (J Nat Prod, 2002).
Activity calls are given as the source filed them.

Legend:
Type in all cases: functional, organism-based
[1] = test system: Chlorella vulgaris; assay: Antialgal activity against Chlorella vulgaris
[2] = test system: Rhizomucor miehei; assay: Antifungal activity against Mucor miehei
[3] = test system: Staphylococcus aureus; assay: Antibacterial activity against Staphylococcus aureus
[4] = test system: Chlorella salina; assay: Antialgal activity against Chlorella salina
[5] = test system: Chlorella sorokiniana; assay: Antialgal activity against Chlorella sorokiniana
[6] = test system: Bacillus subtilis; assay: Antibacterial activity against Bacillus subtilis
[7] = test system: Escherichia coli; assay: Antibacterial activity against Escherichia coli

Measured: Activity

C=C(C)[C@@H]1CC(=O)[C@H]2[C@H](C1)[C@@H]1C(=O)O[C@H]3[C@@H]1CC(=O)[C@H]2[C@H]3C(C)=O
inactive: all assays above
